Assay results as given in patent US20100119599A1 (ARCHER PHARMACEUTICALS, INC., priority 2006, published 2010).

Experiments:
Aβ1-40 = test: Measurement of Aβ1-40 in culture medium of 7W WT APP751 CHO cells by ELISA; format: cell-based, Chinese hamster; conditions: for activity at 5 µM: Cricetulus griseus, Table 1, 5 μM test compound, CHO cells stably transfected with human APP751, culture medium, ELISA, control DMSO, 0 = no detectable amount; for Aβ1-40 (% of control): CHO cells that overexpress APP751, zero = below the detection limit of the assay
Aβ1-42 = test: Measurement of Aβ1-42 in culture medium of 7W WT APP751 CHO cells by ELISA; format: cell-based, Chinese hamster; conditions: for activity at 5 µM: Cricetulus griseus, Table 1, 5 μM test compound, CHO cells stably transfected with human APP751, culture medium, ELISA, control DMSO, 0 = no detectable amount, read-out: Aβ1-42 (% of control); for Aβ1-42 (% of control): CHO cells that overexpress APP751, zero = below the detection limit of the assay
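Also: 5 µM test compound but RI-coded compounds at 10 µM for 24 hours.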

Structure (SMILES)	activity at 5 µM (Aβ1-40)	activity at 5 µM (Aβ1-42)	Aβ1-40 (% of control) (Aβ1-40)	Aβ1-42 (% of control) (Aβ1-42)
CC1=C(C(=O)OCCOc2ccccc2)C(c2ccc(C(C)C)cc2)C2=C(CCCC2=O)N1 (stereo not shown) [ST052247, 2-phenoxyethyl 2-methyl-4-[4-(methylethyl)phenyl]-5-oxo-1,4,6,7,8-pentahydroquinoline-3-carboxylate]	98%	64.1%	–	–
CC(=O)C1=C(C)NC(S)=C(C#N)C1c1ccccc1[N+](=O)[O-] (stereo not shown) [ST011628, 5-acetyl-6-methyl-4-(2-nitrophenyl)-2-sulfanyl-1,4-dihydropyridine-3-carbonitrile]	–	–	74.07 % of control	76.9 % of control
CC1=C(C(=O)Nc2ccccc2)C(c2cccs2)C(C#N)=C(SCC(=O)NC2CCC2)N1 (stereo not shown) [RI_24]	–	–	80.8 % of control	44.1 % of control
COc1ccc(C2CC(=O)C3=C(C2)NC(C)=C(C(=O)OC(C)C)C3c2ccc(OCc3ccccc3)cc2)cc1 (stereo not shown) [ST016961, methylethyl 7-(4-methoxyphenyl)-2-methyl-5-oxo-4-[4-(phenylmethoxy)phenyl]-1,4,6,7,8-pentahydroquinoline-3-carboxylate]	41.8%	89.5%	–	–
CCCOC(=O)C1=C(C)NC2=C(C(=O)CCC2)C1c1ccc(C)cc1 (stereo not shown) [ST013247, propyl 2-methyl-4-(4-methylphenyl)-5-oxo-1,4,6,7,8-pentahydroquinoline-3-carboxylate]	35.5%	55%	–	–
Cc1ccc(/C=c2/sc3n(c2=O)C(N)=C(C#N)C(c2ccc(C)cc2)C=3C#N)cc1 (stereo not shown) [ST215709, 5-amino-7-(4-methylphenyl)-2-[(4-methylphenyl)methylene]-3-oxo-4,7-dihydro-1,3-thiazolidino[3,2-a]pyridine-6,8-dicarbonitrile]	–	–	55.91 % of control	78.43 % of control
COc1ccc(C2C(C(=O)OC(C)C)=C(C)NC3=C2C(=O)CC(C)(C)C3)cc1Br (stereo not shown) [ST215449, methylethyl 4-(3-bromo-4-methoxyphenyl)-2,7,7-trimethyl-5-oxo-1,4,6,7,8-pentahydroquinoline-3-carboxylate]	24.5%	25.7%	–	–
CCCOc1ccccc1C1C(C(=O)OCc2ccccc2)=C(C)NC2=C1C(=O)CCC2 (stereo not shown) [ST014957, phenylmethyl 2-methyl-5-oxo-4-(2-propoxyphenyl)-1,4,6,7,8-pentahydroquinoline-3-carboxylate]	0%	62.8%	–	–
CC1=C(C(=O)OC(C)C)C(c2cccnc2)C2=C(CC(c3ccc(Cl)cc3)CC2=O)N1 (stereo not shown) [ST017331, methylethyl 7-(4-chlorophenyl)-2-methyl-5-oxo-4-(3-pyridyl)-1,4,6,7,8-pentahydroquinoline-3-carboxylate]	1.11%	0%	–	–
CC1=C(C(=O)OCCOc2ccccc2)C(c2ccc3c(c2)OCO3)C2=C(CC(C)(C)CC2=O)N1 (stereo not shown) [ST015103, 2-phenoxyethyl 4-(2H-benzo[3,4-d]1,3-dioxolan-5-yl)-2,7,7-trimethyl-5-oxo-1,4,6,7,8-pentahydroquinoline-3-carboxylate]	35.3%	73.5%	–	–
CC1=C(C(=O)Nc2ccccc2)C(c2ccsc2)C(C#N)=C(SCC(=O)Nc2ccc(Cl)cc2)N1 (stereo not shown) [RI_75]	–	–	27.3 % of control	38.6 % of control
CC1=C(C(=O)OC2CCCC2)C(c2ccc(Cl)cc2)C2=C(CC(C)(C)CC2=O)N1 (stereo not shown) [ST013081, cyclopentyl 4-(4-chlorophenyl)-2,7,7-trimethyl-5-oxo-1,4,6,7,8-pentahydroquinoline-3-carboxylate]	0%	0.188%	–	–
N#CC1=C(N)NC(SCC(N)=O)=C(C#N)C1c1ccccc1Br (stereo not shown) [RI_1]	–	–	93.2 % of control	75.4 % of control
COc1ccc(C2CC(=O)C3=C(C2)NC(C)=C(C(=O)OC(C)C)C3c2ccc(F)cc2)cc1 (stereo not shown) [ST017066, methylethyl 4-(4-fluorophenyl)-7-(4-methoxyphenyl)-2-methyl-5-oxo-1,4,6,7,8-pentahydroquinoline-3-carboxylate]	24.9%	57.4%	–	–
